Experimental data: US20040259173A1, “Method of determining target protein of drug” (priority 2001, published 2004)

Key:
[1] = tested on: proteins in cell lysate of HCT116; test: Protease digestion assay of HCT116 cell lysate, SDS-PAGE with Coomassie Brilliant Blue staining; type: biochemical, human; conditions: UCS15A 0-300 μmol/L, 37° C. for 12 hours, endogenous protease
Protocol: (§1) By using Dulbecco's modification of Eagle's medium (DMEM) containing 10% fetal bovine serum, human colon tumor cell line HCT116 (ATCC number CCL-247) was cultured on 100 mm diameter dishes for cell culturing in a CO2 incubator at 37° C. under 5% CO2 condition, and proliferated by subculture with division into five portions every 3 days. The culture medium was removed from three HCT116 cell dishes on the third day from the subculture, and cells were washed by addition and successive removal of 10 ml of ice-cooled PBS. To these cells, 10 mL of RSB (10 mmol/L Tris-hydrochloride pH7.6, 10 mmol/L NaCl, 1.5 mmol/L MgCl2) having a low osmotic pressure was added. After the cells were put on ice for 10 minutes to allow expansion, the cells were detached from the dishes and put into 15 mL volume Dounce homogenizer together with the already added RBS. The cells were disrupted by 50 strokes of a pestle. This cell lysate was centrifuged at 4° C., 15,000 rpm for 30 minutes. The obtained supernatant was collected, and divided into ten 1 mL aliquots.
UCS15A was isolated and purified from Streptmyces actinobacterium, according to the descriptions in Japanese Published Unexamined Patent Application No. 58-116686, and a dimethylsulfoxide (DMSO) solution at a concentration of 10 mmol/L was prepared. […]

[2] = biological target: T1, Sam68 (Homo sapiens, UniProt Q07666); test: Protease digestion assay with specific detection of Sam68 by Western blotting; type: biochemical; conditions: HCT116 cell lysate, 37° C. for 12 hours
T1 construct: endogenous in cells; host or cells: HCT116 (ATCC CCL-247) cell lysate
T1 sequence (Q07666 whole entry): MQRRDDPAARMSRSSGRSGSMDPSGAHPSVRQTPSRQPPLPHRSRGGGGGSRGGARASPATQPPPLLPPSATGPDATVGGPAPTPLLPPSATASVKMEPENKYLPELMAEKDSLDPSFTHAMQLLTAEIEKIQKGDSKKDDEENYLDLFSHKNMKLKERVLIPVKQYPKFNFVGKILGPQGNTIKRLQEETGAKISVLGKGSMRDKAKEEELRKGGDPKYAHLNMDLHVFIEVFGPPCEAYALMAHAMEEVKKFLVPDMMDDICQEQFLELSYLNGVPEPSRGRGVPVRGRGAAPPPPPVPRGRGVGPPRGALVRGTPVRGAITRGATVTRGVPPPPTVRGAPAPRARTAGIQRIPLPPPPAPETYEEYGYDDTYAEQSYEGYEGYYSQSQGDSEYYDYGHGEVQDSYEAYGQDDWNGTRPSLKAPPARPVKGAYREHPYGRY
Protocol: as §1, with “The obtained supernatant was collected, and divided into ten 1 mL aliquots.” left out
Sam68 in the cell lysate was detected by Western blotting as described below. […]
When the protease digestion assay described in (2) was conducted, a protease inhibitor cocktail (Complete; manufactured by Roche) which can inhibit wide variety of proteases was added along with UCS15A, and the same reaction was proceeded. After the electrophoresis, Sam68 was detected by Western blotting in a same manner to that of (3). […]

[3] = tested on: bone resorption; conditions: cited from earlier work
[4] = tested on: signal transduction of tyrosine kinase src; conditions: cited from earlier work
[5] = biological target: src (Homo sapiens, UniProt P12931); conditions: cited from earlier work
[6] = biological target: src and Sam68 (Homo sapiens, UniProt Q07666); conditions: cited from earlier work
Chain of src and Sam68 (Q07666 whole entry, species assumed): as the sequence (Q07666 whole entry) above

UCS15A
change of protein amounts in the cell lysate (Coomassie Brilliant Blue stained gel) [1]: Several proteins, which decreased their amounts with the increase of UCS15A concentration, were observed
amount of Sam68 in the cell lysate (Western blotting) ([2]; UCS15A 0-300 μmol/L, endogenous protease, without protease inhibitor): the amount of Sam68 in the cell lysate decreased with the increase of the UCS15A concentration
amount of Sam68 in the cell lysate with protease inhibitor (Western blotting) ([2]; protease inhibitor cocktail (Complete) added along with UCS15A): the decrease of the amount of Sam68 in the cell lysate was inhibited by the addition of a protease inhibitor
inhibitory activity on bone resorption [3]: has an inhibitory activity on bone resorption
inhibition of signal transduction of tyrosine kinase src [4]: inhibit the signal transduction of tyrosine kinase src
inhibition of enzyme activity of src [5]: not to inhibit the enzyme activity of src
inhibition of binding between src and Sam68 [6]: specifically inhibit the binding between src and Sam68
